For the assay, the target named is T1, human V1b receptors (Homo sapiens, UniProt P47901).
T1 construct: expressed in transfected cells
T1 sequence (P47901 1-424): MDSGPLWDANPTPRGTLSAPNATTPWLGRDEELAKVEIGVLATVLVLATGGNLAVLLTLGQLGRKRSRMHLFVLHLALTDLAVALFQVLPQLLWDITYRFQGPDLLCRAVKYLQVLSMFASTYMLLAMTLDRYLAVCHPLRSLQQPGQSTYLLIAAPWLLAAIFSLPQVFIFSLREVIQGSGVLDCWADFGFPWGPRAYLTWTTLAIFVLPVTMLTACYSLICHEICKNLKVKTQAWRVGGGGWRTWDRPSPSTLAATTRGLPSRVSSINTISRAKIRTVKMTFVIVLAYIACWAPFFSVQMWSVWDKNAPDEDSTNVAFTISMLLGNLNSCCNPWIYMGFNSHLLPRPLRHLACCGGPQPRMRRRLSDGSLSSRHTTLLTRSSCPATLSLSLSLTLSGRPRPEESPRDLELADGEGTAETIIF
As to the kind of experiment: Vasopressin V1b receptor binding assay. The method, then: Vasopressin V1b Receptor Binding Assay:
These DMSO solutions were diluted 1:10 with assay buffer. The substance concentration was further diluted 1:10 in the assay mixture.
The nonspecific binding was determined with 10^−6 M AVP. Determinations in triplicate were carried out.
The affinities for the human vasopressin V1b receptor were measured, and affinity constants determined, in the above assay for the inventive examples.
The affinities of the compounds (I) of the invention for the human vasopressin V1b receptor were measured in accordance with the above assays, and the affinity constants (Ki) were determined. Table 1 below details the V1b receptor affinity of selected compounds (+++ means <10 nM and ++ means 10-100 nM).

The mark [1] stands for this setting: Table 1, human vasopressin V1b receptor affinity, read-out: V1b Ki.
[2] abbreviates: membranes from CHO-K1 cells, 3H-AVP displacement, read-out: measured Ki values, affinities for the vasopressin V1b receptor.

Structures are written as SMILES. Like-named read-outs stand apart in the source and are kept apart here.

As for `CCOc1ccccc1C1(OC(=O)N2CCN(c3cc(C#N)ccn3)CC2)C(=O)N(S(=O)(=O)c2ccc(OC)cc2OC)c2ccc(C#N)cc21` (centres unmarked) [Example 26, 1-(2,4-Dimethoxybenzenesulfonyl)-5-cyano-2-oxo-3-(2-ethoxyphenyl)-2,3-dihydro-1H-indol-3-yl 4-(4-cyanopyridin-2-yl)piperazine-1-carboxylate], the Ki (as a rule, the dissociation constant of the complex between target and ligand, obtained from inhibition or displacement) reads like this: under setting [1], under 10 nM; under setting [2], under 100 nM.
`CCOc1ccccc1C1(NC(=O)N2CCN(c3ccc(C#N)cn3)CC2)C(=O)N(S(=O)(=O)c2ccc(OC)cc2OC)c2ccc(C#N)cc21` (centres unmarked) [Example 33, 4-(5-Cyanopyridin-2-yl)piperazine-1-[1-(2,4-dimethoxybenzenesulfonyl)-5-cyano-2-oxo-3-(2-ethoxyphenyl)-2,3-dihydro-1H-indol-3-yl]carboxamide]: the Ki is under 10 nM under setting [1] and under 100 nM under setting [2].
As for `CCOc1ccccc1C1(OC(=O)N2CCN(c3ccncc3)CC2)C(=O)N(S(=O)(=O)c2ccc(OC)cc2OC)c2ccc(C#N)cc21` (centres unmarked) [Example 3, 5-Cyano-1-(2,4-dimethoxybenzenesulfonyl)-3-(2-ethoxyphenyl)-2-oxo-2,3-dihydro-1H-indol-3-yl 4-(pyridin-4-yl)piperazine-1-carboxylate], the Ki was under 10 nM under setting [1] and under 100 nM under setting [2].
On to `CCOc1ccccc1C1(OC(=O)N2CCN(c3ccncc3)CC2)C(=O)N(S(=O)(=O)c2ccc(C)cc2OC)c2ccc(C#N)cc21` (centres unmarked) [Example 20], for which the Ki by setting is: under setting [1], under 10 nM; under setting [2], under 100 nM.
For `CCOc1ccccc1C1(NC(=O)N2CCN(c3ccncc3)CC2)C(=O)N(S(=O)(=O)c2ccccc2F)c2ccc(C#N)cc21` (centres unmarked) [Example 12, 4-(Pyridin-4-yl)piperazine-1-[1-(2-fluorobenzenesulfonyl)-5-cyano-2-oxo-3-(2-ethoxyphenyl)-2,3-dihydro-1H-indol-3-yl]carboxamide] the same measures were under 10 nM and under 100 nM.
For `CCOc1ccccc1C1(NC(=O)N2CCN(c3ccc(C#N)cn3)CC2)C(=O)N(S(=O)(=O)c2ccccc2)c2ccc(C#N)cc21` (centres unmarked) [Example 48, 4-(5-Cyanopyridin-2-yl)piperazine-1-[1-benzenesulfonyl-5-cyano-2-oxo-3-(2-ethoxyphenyl)-2,3-dihydro-1H-indol-3-yl]carboxamide] the same measures were 10 to 100 nM and under 100 nM.
Consider `CCOc1ccccc1C1(OC(=O)N2CCN(c3ccncc3)CC2)C(=O)N(S(=O)(=O)c2ccccc2F)c2ccc(C#N)cc21` (centres unmarked) [Example 8, 5-Cyano-1-(2-fluorobenzenesulfonyl)-3-(2-ethoxyphenyl)-2-oxo-2,3-dihydro-1H-indol-3-yl 4-(pyridin-4-yl)piperazine-1-carboxylate], for which the Ki reads like this: under setting [1], 10 to 100 nM; under setting [2], under 100 nM.
Turning to `CCOc1ccccc1C1(OC(=O)N2CCN(c3ccncc3)CC2)C(=O)N(S(=O)(=O)c2ccccc2OC)c2ccc(C#N)cc21` (centres unmarked) [Example 2, 5-Cyano-1-(2-methoxybenzenesulfonyl)-3-(2-ethoxyphenyl)-2-oxo-2,3-dihydro-1H-indol-3-yl 4-(pyridin-4-yl)piperazine-1-carboxylate], the inhibition constant Ki is, setting by setting: under setting [1], 10 to 100 nM; under setting [2], under 100 nM.
On to `CCOc1ccccc1C1(NC(=O)N2CCN(c3ccncc3)CC2)C(=O)N(S(=O)(=O)c2ccc(OC)cc2OC)c2ccc(C#N)cc21` (centres unmarked) [Example 16, 4-(Pyridin-4-yl)piperazine-1-[1-(2,4-dimethoxybenzenesulfonyl)-5-cyano-2-oxo-3-(2-ethoxyphenyl)-2,3-dihydro-1H-indol-3-yl]carboxamide], for which the Ki under setting [1] was under 10 nM and the inhibition constant (Ki) under setting [2] is under 100 nM.
Turning to `CCOc1ccccc1C1(OC(=O)N2CCN(c3ncccn3)CC2)C(=O)N(S(=O)(=O)c2ccc(OC)cc2OC)c2ccc(C#N)cc21` (centres unmarked) [Example 27, 1-(2,4-Dimethoxybenzenesulfonyl)-5-cyano-2-oxo-3-(2-ethoxyphenyl)-2,3-dihydro-1H-indol-3-yl 4-(pyrimidin-2-yl)piperazin-1-carboxylate], the Ki was 10 to 100 nM under setting [1] and under 100 nM under setting [2].
On to `CCOc1ccccc1C1(OC(=O)N2CCN(c3nccs3)CC2)C(=O)N(S(=O)(=O)c2ccccc2OC)c2ccc(C#N)cc21` (centres unmarked) [Example 4, 5-Cyano-1-(2-methoxybenzenesulfonyl)-3-(2-ethoxyphenyl)-2-oxo-2,3-dihydro-1H-indol-3-yl 4-(thiazol-2-yl)piperazine-1-carboxylate], for which the Ki under setting [1] was under 10 nM and the Ki under setting [2] was under 100 nM.
As for `CCOc1ccccc1C1(OC(=O)N2CCN(c3ccccn3)CC2)C(=O)N(S(=O)(=O)c2ccc(OC)cc2OC)c2ccc(C#N)cc21` (centres unmarked) [Example 25, 1-(2,4-Dimethoxybenzenesulfonyl)-5-cyano-2-oxo-3-(2-ethoxyphenyl)-2,3-dihydro-1H-indol-3-yl 4-(pyridin-2-yl)piperazine-1-carboxylate], the Ki under setting [1] was 10 to 100 nM and the Ki under setting [2] was under 100 nM.
For the molecule `CCOc1ccccc1C1(NC(=O)N2CCN(c3ccc(C#N)cn3)CC2)C(=O)N(S(=O)(=O)c2ccccc2OC)c2ccc(C#N)cc21` (centres unmarked) [Example 45, 4-(5-Cyanopyridin-2-yl)piperazine-1-[1-(2-methoxybenzenesulfonyl)-5-cyano-2-oxo-3-(2-ethoxyphenyl)-2,3-dihydro-1H-indol-3-yl]carboxamide], the Ki by setting is: under setting [1], 10 to 100 nM; under setting [2], under 100 nM.
Regarding `CCOc1ccccc1C1(OC(=O)N2CCN(c3ccncc3)CC2)C(=O)N(S(=O)(=O)c2ccc(F)cc2F)c2ccc(C#N)cc21` (centres unmarked) [Example 7, 5-Cyano-1-(2,4-difluorobenzenesulfonyl)-3-(2-ethoxyphenyl)-2-oxo-2,3-dihydro-1H-indol-3-yl 4-(pyridin-4-yl)piperazine-1-carboxylate], the Ki under setting [1] lay in the range of 10 to 100 nM and the Ki under setting [2] was under 100 nM.
Consider `CCOc1ccccc1C1(OC(=O)N2CCN(c3ccncc3)CC2)C(=O)N(S(=O)(=O)c2ccc([N+](=O)[O-])cc2)c2ccc(C#N)cc21` (centres unmarked) [Example 19, 1-(4-Nitrobenzenesulfonyl)-5-cyano-2-oxo-3-(2-ethoxyphenyl)-2,3-dihydro-1H-indol-3-yl 4-(pyridin-4-yl)piperazine-1-carboxylate], for which the inhibitory constant (Ki) under setting [1] is under 10 nM and the Ki under setting [2] was under 100 nM.
Take `CCOc1ccccc1C1(NC(=O)N2CCN(c3ncccn3)CC2)C(=O)N(S(=O)(=O)c2ccc(OC)cc2OC)c2ccc(C#N)cc21` (centres unmarked) [Example 34, 4-(Pyrimidin-2-yl)piperazine-1-[1-(2,4-dimethoxybenzenesulfonyl)-5-cyano-2-oxo-3-(2-ethoxyphenyl)-2,3-dihydro-1H-indol-3-yl]carboxamide]: the Ki is under 10 nM under setting [1] and under 100 nM under setting [2].
On the same counts, the results for `CCOc1ccccc1C1(OC(=O)N2CCN(c3ccncc3)CC2)C(=O)N(S(=O)(=O)c2ccccc2)c2ccc(C#N)cc21` (centres unmarked) [Example 9, 5-Cyano-1-benzenesulfonyl-3-(2-ethoxyphenyl)-2-oxo-2,3-dihydro-1H-indol-3-yl 4-(pyridin-4-yl)-piperazine-1-carboxylate] are 10 to 100 nM and under 100 nM.
In the case of `CCOc1ccccc1C1(NC(=O)N2CCN(c3ncccc3C)CC2)C(=O)N(S(=O)(=O)c2ccc(OC)cc2OC)c2ccc(C#N)cc21` (centres unmarked) [Example 32, 4-(3-Methylpyridin-2-yl)piperazine-1-[1-(2,4-dimethoxybenzenesulfonyl)-5-cyano-2-oxo-3-(2-ethoxyphenyl)-2,3-dihydro-1H-indol-3-yl]carboxamide], the Ki under setting [1] was in the range of 10 to 100 nM and the Ki under setting [2] was under 100 nM.
As to `CCOc1ccccc1C1(OC(=O)N2CCN(c3ccncc3)CC2)C(=O)N(S(=O)(=O)c2ccc(C#N)cc2)c2ccc(C#N)cc21` (centres unmarked) [Example 18, 1-(4-Cyanobenzenesulfonyl)-5-cyano-2-oxo-3-(2-ethoxyphenyl)-2,3-dihydro-1H-indol-3-yl 4-(pyridin-4-yl)piperazine-1-carboxylate], the Ki is 10 to 100 nM under setting [1] and under 100 nM under setting [2].
Turning to `CCOc1ccccc1C1(OC(=O)N2CCN(c3cnccn3)CC2)C(=O)N(S(=O)(=O)c2ccc(OC)cc2OC)c2ccc(C#N)cc21` (centres unmarked) [Example 29, 1-(2,4-Dimethoxybenzenesulfonyl)-5-cyano-2-oxo-3-(2-ethoxyphenyl)-2,3-dihydro-1H-indol-3-yl 4-(pyrazin-2-yl)piperazine-1-carboxylate], the inhibitory constant (Ki) is 10 to 100 nM under setting [1] and under 100 nM under setting [2].
Regarding `CCOc1ccccc1C1(NC(=O)N2CCN(c3cnccn3)CC2)C(=O)N(S(=O)(=O)c2ccc(OC)cc2OC)c2ccc(C#N)cc21` (centres unmarked) [Example 35, 4-(Pyrazin-2-yl)piperazine-1-[1-(2,4-dimethoxybenzenesulfonyl)-5-cyano-2-oxo-3-(2-ethoxyphenyl)-2,3-dihydro-1H-indol-3-yl]carboxamide], the Ki reads like this: under setting [1], 10 to 100 nM; under setting [2], under 100 nM.
Regarding `CCOc1ccccc1C1(NC(=O)N2CCN(c3ccc(C#N)cn3)CC2)C(=O)N(S(=O)(=O)c2ccc([N+](=O)[O-])cc2)c2ccc(C#N)cc21` (centres unmarked) [Example 43, 4-(5-Cyanopyridin-2-yl)piperazine-1-[1-(4-nitrobenzenesulfonyl)-5-cyano-2-oxo-3-(2-ethoxyphenyl)-2,3-dihydro-1H-indol-3-yl]carboxamide], the Ki by setting is: under setting [1], 10 to 100 nM; under setting [2], under 100 nM.

The record behind these values is patent publication US8129389B2, “Substituted oxindole derivatives, medicaments containing the latter and use thereof” (Abbott GmbH & Co. KG, priority 2005, dated 2012).
